≈ marks a conversion by molar mass, not a printed value.

What all share (test): ≥ marks a high value that may be exact or a test limit, other limits are often not marked, values filed in µg/mL are converted to µM
In test [1] the test system is Bacillus subtilis.
In test [2] the test system is Escherichia coli.
In test [3] the test system is Bacillus subtilis ATCC 6633.
The test system of test [4] is Escherichia coli UB1005.
Test [5] concerns Pseudomonas aeruginosa PAO1.
Test [6] concerns Staphylococcus aureus ATCC 25923.
Test [7] relates to Candida albicans ATCC 90028.
Test [8] relates to Escherichia coli ATCC 25922.
For test [9], the system named is Staphylococcus aureus.
Test [10] deals with Candida albicans.
Test [11] concerns Pseudomonas aeruginosa ATCC 27853.
Test [12] relates to Staphylococcus aureus ATCC 29213.
Test [13] concerns Pseudomonas aeruginosa.

With `CC[C@H](C)[C@H](N)C(=O)N[C@@H](CC(=O)O)C(=O)N[C@@H](Cc1c[nH]c2ccccc12)C(=O)N[C@@H](CCCCN)C(=O)N[C@@H](CCCCN)C(=O)N[C@H](C(=O)N[C@@H](Cc1ccccc1)C(=O)N[C@@H](CCC(=O)O)C(=O)N[C@@H](CCCCN)C(=O)N[C@H](C(=O)N[C@@H](CCCCN)C(=O)N[C@@H](CC(=O)O)C(=O)N[C@@H](CC(C)C)C(=O)N[C@H](C(N)=O)C(C)C)C(C)C)[C@@H](C)CC` [IDWKKIFEKVKDLV], the MIC worked out at 17.5 µM (≈ 30.8 µg/mL) in [1] and 47.5 µM (≈ 83.6 µg/mL) in [2].
On to `CSCC[C@H](NC(=O)[C@H](Cc1ccccc1)NC(=O)CN)C(=O)N[C@@H](CO)C(=O)N[C@H](C(=O)N[C@@H](C)C(=O)N[C@@H](CO)C(=O)N[C@@H](CC(N)=O)C(=O)N[C@H](C(=O)N[C@@H](CC(C)C)C(=O)N[C@H](C(=O)N[C@@H](CC(N)=O)C(=O)N[C@H](C(=O)N[C@@H](C)C(=O)NCC(=O)N[C@H](C(=O)N[C@H](C(=O)N[C@@H](CCSC)C(=O)N[C@@H](CC(=O)O)C(=O)N[C@@H](CCCCN)C(=O)N[C@@H](CC(C)C)C(=O)N[C@@H](CCCCN)C(=O)N[C@H]1CSSC[C@@H](C(=O)O)NC(=O)[C@H](C)NC(=O)CNC(=O)[C@H]([C@@H](C)O)NC(=O)[C@H](Cc2ccccc2)NC(=O)[C@H](CCCCN)NC1=O)C(C)C)[C@@H](C)O)C(C)C)[C@@H](C)O)C(C)C)[C@@H](C)O` [GFMSTASNVLTNVAGTVMDKLKCKFTGAC], for which the MIC in test [3] was no less than 100 µM.
As to `CC[C@H](C)[C@H](NC(=O)[C@H](Cc1cnc[nH]1)NC(=O)[C@H](CCCN=C(N)N)NC(=O)[C@@H]1CCCN1C(=O)[C@@H]1CCCN1C(=O)[C@H](CCCN=C(N)N)NC(=O)[C@@H]1CCCN1C(=O)[C@H](CCCN=C(N)N)NC(=O)[C@@H]1CCCN1C(=O)[C@H](CC(C)C)NC(=O)[C@H](Cc1ccc(O)cc1)NC(=O)[C@@H]1CCCN1C(=O)[C@@H]1CCCN1C(=O)[C@H](CCCCN)NC(=O)[C@H](CC(=O)O)NC(=O)[C@@H](N)C(C)C)C(=O)N[C@@H](Cc1ccc(O)cc1)C(=O)N[C@@H](CC(N)=O)C(=O)N[C@@H](CCCN=C(N)N)C(N)=O` [VDKPPYLPRPRPPRHIYNR], the MIC was 0.548 µM (≈ 1.3 µg/mL) in test [4], 27 µM (≈ 64 µg/mL) in [5] and greater than 54 µM in [6].
`CC[C@H](C)[C@H](NC(=O)[C@H](CC(C)C)NC(=O)[C@@H]1CCCN1C(=O)[C@H](CC(C)C)NC(=O)[C@@H](N)Cc1ccccc1)C(=O)N[C@@H](C)C(=O)NCC(=O)N[C@H](C(=O)N[C@@H](C)C(=O)N[C@@H](C)C(=O)N[C@@H](CO)C(=O)N[C@H](C(=O)N[C@@H](CC(C)C)C(=O)N1CCC[C@H]1C(=O)N[C@@H](CCCCN)C(=O)N[C@H](C(=O)N[C@@H](Cc1ccccc1)C(=O)N[C@H]1CSSC[C@@H](C(=O)O)NC(=O)[C@H](CCCCN)NC(=O)[C@H](CCCCN)NC(=O)[C@H]([C@@H](C)O)NC(=O)[C@H]([C@@H](C)CC)NC(=O)[C@H](Cc2ccccc2)NC1=O)[C@@H](C)CC)[C@@H](C)CC)C(C)C` [FLPLIAGVAASILPKIFCFITKKC]: the results for the MIC in [7], in test [8] and in test [6] were 3 µM (≈ 7.78 µg/mL), greater than 100 µM and 3 µM (≈ 7.78 µg/mL), respectively.
As to `CC[C@H](C)[C@H](NC(=O)[C@H](CCCCN)NC(=O)[C@H](CS)NC(=O)[C@H](C)NC(=O)[C@@H](NC(=O)[C@H](Cc1ccccc1)NC(=O)CNC(=O)[C@H](CC(C)C)NC(=O)CNC(=O)[C@@H](NC(=O)[C@H](CCCCN)NC(=O)CNC(=O)[C@H](CC(C)C)NC(=O)[C@H](CC(N)=O)NC(=O)[C@H](CCCCN)NC(=O)[C@H](CC(C)C)NC(=O)[C@@H](NC(=O)[C@H](CO)NC(=O)[C@H](CC(C)C)NC(=O)[C@H](CCSC)NC(=O)[C@@H](N)CO)C(C)C)C(C)C)C(C)C)C(=O)N[C@@H](CCCCN)C(=O)N[C@@H](CCCCN)C(=O)N[C@@H](CCC(N)=O)C(=O)N[C@@H](CS)C(=O)O` [SMLSVLKNLGKVGLGFVACKIKKQC], the values for the MIC in test [9], in test [10] and in test [2] were 20 µM (≈ 53.3 µg/mL), 20 µM (≈ 53.3 µg/mL) and 10 µM (≈ 26.7 µg/mL), respectively.
On to `CC[C@H](C)[C@H](N)C(=O)N[C@@H](CC(C)C)C(=O)NCC(=O)N[C@@H](C)C(=O)N[C@H](C(=O)N[C@H](C(=O)N1CCC[C@H]1C(=O)N[C@@H](CC(C)C)C(=O)N[C@H](C(=O)N[C@@H](CO)C(=O)NCC(=O)N[C@@H](CC(C)C)C(=O)N[C@@H](CC(C)C)C(=O)N[C@@H](CO)C(=O)N[C@@H](Cc1cnc[nH]1)C(=O)N[C@@H](CC(C)C)C(N)=O)C(C)C)[C@@H](C)CC)[C@@H](C)CC` [ILGAIIPLVSGLLSHL], for which the MIC in test [9] was 19.3 µM (≈ 31.2 µg/mL); in test [10], 310 µM (≈ 501 µg/mL); in test [2], greater than 400 µM.
In the case of `CC[C@H](C)[C@H](NC(=O)[C@H](CCCN=C(N)N)NC(=O)[C@H](C)NC(=O)[C@@H](NC(=O)[C@@H](NC(=O)[C@H](CCCN=C(N)N)NC(=O)[C@@H](N)CCCCN)[C@@H](C)CC)C(C)C)C(=O)N[C@@H](CCCCN)C(=O)N[C@@H](C)C(=O)N[C@@H](C)C(=O)N[C@@H](CC(C)C)C(=O)N[C@@H](CCCN=C(N)N)C(=O)O` [KRIVARIKAALR], the MIC in test [7] worked out at 10 µM (≈ 13.9 µg/mL); in test [11] it was 2.5 µM (≈ 3.49 µg/mL); in test [8], 2.5 µM (≈ 3.49 µg/mL); in test [12], 5 µM (≈ 6.97 µg/mL).
For `CC[C@H](C)[C@H](NC(=O)[C@H](CCCN=C(N)N)NC(=O)[C@H](CCC(N)=O)NC(=O)[C@@H](NC(=O)[C@@H](NC(=O)[C@H](CCCN=C(N)N)NC(=O)[C@@H](N)CCCCN)[C@@H](C)CC)C(C)C)C(=O)N[C@@H](C)C(=O)N[C@@H](CC(=O)O)C(=O)N[C@@H](Cc1ccccc1)C(=O)N[C@@H](CC(C)C)C(=O)N[C@@H](CCCN=C(N)N)C(=O)O` [KRIVQRIADFLR], the MIC in test [7] was no less than 40 µM; in test [11], 40 µM (≈ 60.6 µg/mL); in [8], 40 µM (≈ 60.6 µg/mL); in test [12], 40 µM (≈ 60.6 µg/mL).
Take `CC[C@H](C)[C@H](NC(=O)[C@@H](NC(=O)[C@H](CC(N)=O)NC(=O)[C@H](CC(C)C)NC(=O)[C@H](CC(C)C)NC(=O)CN)C(C)C)C(=O)N[C@@H](CCCCN)C(=O)N[C@@H](CC(=O)O)C(=O)N[C@H](C(=O)N[C@@H](C)C(=O)N[C@@H](CCC(N)=O)C(=O)N[C@@H](CC(N)=O)C(=O)N[C@@H](CC(C)C)C(=O)N[C@@H](Cc1ccccc1)C(=O)N[C@@H](C)C(=O)N[C@@H](C)C(=O)N[C@@H](C)C(=O)N[C@@H](CC(C)C)C(=O)N[C@@H](CCC(=O)O)C(=O)N[C@@H](CCCCN)C(=O)N[C@@H](CC(C)C)C(=O)N[C@@H](CCCCN)C(=O)N[C@H]1CSSC[C@@H](C(=O)N[C@@H](CC(N)=O)C(=O)O)NC(=O)[C@H](CCCCN)NC(=O)[C@H]([C@@H](C)O)NC(=O)[C@H](C(C)C)NC(=O)[C@H](CCCCN)NC1=O)[C@@H](C)O` [GLLNVIKDTAQNLFAAALEKLKCKVTKCN]: the MIC in test [7] was no less than 160 µM; in [8], 80 µM (≈ 252 µg/mL); in test [6] it was greater than 160 µM.
As to `CC[C@H](C)[C@H](NC(=O)[C@H](CCCCN)NC(=O)[C@H](CC(=O)O)NC(=O)[C@H](CC(C)C)NC(=O)[C@H](CC(C)C)NC(=O)CNC(=O)[C@@H](NC(=O)[C@H](C)NC(=O)[C@H](CC(C)C)NC(=O)[C@H](CC(N)=O)NC(=O)[C@H](CCCCN)NC(=O)[C@H](C)NC(=O)[C@@H](NC(=O)[C@H](CC(N)=O)NC(=O)[C@H](CCCCN)NC(=O)[C@@H](NC(=O)[C@@H](NC(=O)[C@H](CC(=O)O)NC(=O)[C@H](CC(C)C)NC(=O)[C@H](CC(C)C)NC(=O)CN)[C@@H](C)O)[C@@H](C)CC)[C@@H](C)O)C(C)C)C(=O)N[C@@H](CCCCN)C(=O)N[C@H]1CSSC[C@@H](C(=O)O)NC(=O)CNC(=O)[C@H]([C@@H](C)O)NC(=O)[C@H](CCSC)NC(=O)[C@H](CCCCN)NC1=O` [GLLDTIKNTAKNLAVGLLDKIKCKMTGC], the MIC in [7] was no less than 150 µM; in test [8] it was 3 µM (≈ 8.88 µg/mL).
Take `CC[C@H](C)[C@H](NC(=O)CN)C(=O)NCC(=O)N[C@@H](CCCCN)C(=O)N[C@@H](Cc1ccccc1)C(=O)N[C@@H](CC(C)C)C(=O)N[C@@H](Cc1cnc[nH]1)C(=O)N[C@@H](CO)C(=O)N[C@@H](C)C(=O)N[C@@H](CCCCN)C(=O)N[C@@H](CCCCN)C(=O)N[C@@H](Cc1ccccc1)C(=O)NCC(=O)N[C@@H](CCCCN)C(=O)N[C@@H](C)C(=O)N[C@@H](Cc1c[nH]c2ccccc12)C(=O)N[C@H](C(=O)NCC(=O)N[C@@H](CCC(=O)O)C(=O)N[C@H](C(=O)N[C@@H](CCSC)C(=O)N[C@@H](CC(N)=O)C(=O)N[C@@H](CO)C(N)=O)[C@@H](C)CC)C(C)C` [GIGKFLHSAKKFGKAWVGEIMNS]: the MIC in [13] is 80 µM (≈ 200 µg/mL); in test [9], greater than 80 µM; in test [2], 40 µM (≈ 100 µg/mL).
For `CC[C@H](C)[C@H](NC(=O)[C@H](CCCN=C(N)N)NC(=O)[C@H](CCCCN)NC(=O)[C@@H](NC(=O)[C@@H](NC(=O)[C@H](CCCN=C(N)N)NC(=O)[C@@H](N)CCCCN)[C@@H](C)CC)C(C)C)C(=O)N[C@@H](CCCCN)C(=O)N[C@@H](C)C(=O)N[C@@H](Cc1ccccc1)C(=O)N[C@@H](CC(C)C)C(=O)N[C@@H](CCCN=C(N)N)C(=O)O` [KRIVKRIKAFLR], the MIC in [7], in [11], in test [8] and in test [12] was 1.25 µM (≈ 1.91 µg/mL) each time.

The term MIC denotes the lowest concentration found to suppress growth. Low values mean a more susceptible organism, high ones a less susceptible organism.

Source of the values: DBAASP.
